Data set [1] is described as follows: Salt screen: stability on drying and humidity exposure, hygroscopicity. It counts as physicochemical. Here is the method: A stock solution with concentration of 85 mg/mL was prepared in TFE. Stock solutions of fourteen different counter ions (e.g., benzenesulfonic acid, benzoic acid, phosphoric acid, sulfuric acid, citric acid, glucuronic acid, glutamic acid, hydrochloric acid, malic acid, methanesulfonic acid, Succinic acid, tartaric acid, toluenesulfonic acid, and acetic acid) were prepared in EtOH. 352 μL (30 mg) of the freebase solution was added to each vial. 1.1 and/or 2.2 equivalents of the appropriate counter ion stock solution were added to each vial. The vials were left to stir at 45° C. for two hours before being uncapped and left to evaporate at 40° C. with stirring overnight in atmosphere. The vials were then placed under active vacuum at 50° C. for 3 hours to dry thoroughly. Approximately, 20 volumes (600 μL) of screening solvent were then added to each vial, and the samples were heated to 45° C. with stirring (450 rpm). […] After two hours, the samples were left to stir at room temperature.
Crystalline salts were characterized and evaluated for viability based on melting point, crystallinity, stability on drying and humidity exposure, water solubility, polymorphism, and acceptability of counter-ion.

Data set [2] in a line: Brain penetration potential.
Data set [3] in a line: Solubility of Compound (I) free base in solvents at 50° C. It counts as physicochemical. Conditions: organic solvent or mixture.
Data set [4] is described as follows: Phase 1 single and multiple ascending dose study (safety, tolerability, pharmacokinetics). It counts as in vivo, human. Here is the method:
Compound (I) was administered as the monophosphate salt. Screening of subjects occurred within 28 days prior to (first) dosing. Subjects participated in only 1 cohort in only 1 study part.
Part 1 (SAD): Six (6) cohorts of 8 subjects each (6 active and 2 placebo) were evaluated. […] The first cohort (Cohort S1) included a sentinel group (1 active and 1 placebo) which was dosed at least 24 hours before the remaining 6 subjects (5 active and 1 placebo). Dosing of the remaining 6 subjects in Cohort S1 was conducted following a safety evaluation of the sentinel group.
Blood samples were collected pre-dose on Day-1, on Day 2, and on Day 5 to measure pharmacodynamic (PD) biomarker (tryptase) concentration.
Part 2 (MAD): Four (4) cohorts of 8 subjects each (6 active and 2 placebo) were evaluated.
Plasma samples were collected pre-dose on Days 1-10 for PK assessment. Plasma samples were also collected through 24 hours post-dose on Day 1 and through 96 hours post-dose on Day 10 for PK assessment. Blood samples were collected pre-dose on Day 1, and pre-dose on Days 2, 5, and 9 to measure PD biomarker (tryptase) concentration. […] Safety was assessed according to incidence and severity of adverse events in recipients of Compound (I) as compared with placebo.

Assay in data set [5]: as above
It counts as in vivo, human. Conditions: five SAD cohorts and three MAD cohorts.

Experimental findings from patent publication US20240254130A1, “SALT AND SOLID FORMS OF A KINASE INHIBITOR” (Blueprint Medicines Corporation, priority 2021, published 2024) are described below.

Converted amounts (≈) assume the structure as drawn. Where two headings read alike, the source gives them in different places. A value given as a limit tells only on which side of the number the result lay.

For the molecule tosylate, the “behaviour of solids upon humidification (high humidity)” value in data set [1] is “deliquescing”.

Regarding `C[C@](N)(c1ccc(F)cc1)c1cnc(N2CCN(c3ncnn4cc(-c5cnn(CCO)c5)cc34)CC2)nc1` [Compound (I), (S)-2-(4-(4-(4-(5-(1-amino-1-(4-fluorophenyl)ethyl)pyrimidin-2-yl)piperazin-1-yl)pyrrolo[1,2-f][1,2,4]triazin-6-yl)-1H-pyrazol-1-yl)ethanol], the brain penetration potential result in data set [2] is “limited”. The solubility in data set [3] (ACN:water (7:3 vol.), sample 82-2, read-out: Solubility (mg/mL) at 50° C.) is 8.6 mg/mL (≈ 16.3 mM); in data set [3] (t-BuOH, sample 83-1, read-out: Solubility (mg/mL) at 50° C.) it was below 2.6 mg/mL; in data set [3] (t-BuOH:water (9:1 vol.), sample 83-2, read-out: Solubility (mg/mL) at 50° C.) it was below 2.6 mg/mL. For the same molecule, the “severity of adverse events” value in data set [4] (abdominal pain, decreased appetite, fatigue, headache, nausea, mostly not related to the drug) is “Only Grade 1 adverse events”. Moreover, the “increase in systemic exposure with dose” value in data set [4] (across SAD and MAD cohorts) was “dose-proportional increase”. In addition, the linearity of pharmacokinetics result in data set [4] (across the dose ranges in SAD and MAD cohorts) is “linear”. Moreover, the half-life in data set [4] (human, plasma, oral, healthy adult subjects, given as monophosphate salt, read-out: mean half-life (t1/2)) lay within 20 to 28 h. Besides, the Vd/F in data set [4] (human, plasma, oral, healthy adult subjects, read-out: geometric mean Vz/F) was in the range of 753 to 973 L. In data set [4] (human, plasma, single oral doses 15-200 mg, fasting, healthy adult subjects, given as monophosphate salt, read-out: median Tmax), the Tmax fell in the range of 1.5 to 6 h. Also, the “findings in laboratory or vital signs parameters” value in data set [4] (in vivo) is “no clinically relevant findings”. The “serious AEs” value in data set [4] (in vivo) was “No serious AEs were reported”. For the same molecule, the “steady state expected to be reached” value in data set [4] (once-daily oral dosing) is at most 7 days. Also, in data set [5], the tolerability result is listed as “well-tolerated”.

As usually defined, the Tmax is the time at which the peak concentration occurs.
